Assay results from EP4775219A1, “USE OF VIRUS 3C PROTEASE IN PREVENTION OR TREATMENT OF TUMOR” (Academy of Military Medical Sciences, priority 2023, dated 2025).

Tests used:
in vitro [1] = assay type: cell-based; conditions: human
Experimental: (§1) Data analysis: The inhibition rate-concentration curve was fitted to a sigmoidal curve using Origin9.0 software to calculate the half-maximal effective concentration (EC50) of AG7088 against 3C-mRNA. The half-cytotoxic concentration (CC50) of the compound was calculated using the same method.

3C protein in A172 cells = 3C protein in A172 cells (Enterovirus A71, UniProt B9VUU3); assay: AG7088 blocking the inhibition of cell viability by EV-3C-mRNA; assay type: cell-based, EV71 or Coxsackievirus A14; conditions: inhibition of the decrease in cell viability caused by 3C-mRNA transfection
Sequence of 3C protein in A172 cells (B9VUU3 1549-1731, change not shown): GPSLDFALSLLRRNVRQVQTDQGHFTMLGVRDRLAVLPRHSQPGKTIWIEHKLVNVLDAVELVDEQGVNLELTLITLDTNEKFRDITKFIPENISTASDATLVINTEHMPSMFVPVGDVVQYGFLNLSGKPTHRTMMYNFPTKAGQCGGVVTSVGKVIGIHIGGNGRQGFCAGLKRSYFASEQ
Experimental: (§2) Rupintrivir (AG7088) is an effective, selective and irreversible 3C protease inhibitor. U87 MG cells and A172 cells were seeded in white-walled clear-bottom 96-well plates at a density of 1.0×10^4 per well, and cultured at 37°C with 5% CO2 for 24 hours. Subsequently, EV-3C-mRNA was diluted with Opti-MEM to final concentrations of 998.4 ng/ml, 499.2 ng/ml, 249.6 ng/ml, 124.8 ng/ml, 62.4 ng/ml, 31.2 ng/ml, and 15.6 ng/ml, and transfected into cells with Lipo2000 liposomes. Compound AG7088 was serially diluted with 2% cell maintenance medium and then added to the 96-well plates to final concentrations of 10µM, 1µM and 0µM, respectively. After 48h, the supernatant was discarded, and the diluted Cell-Titer Glo® Luminescent Cell Viability assay solution was added. The mixture was shaken for 5min in the dark to lyse the cells, followed by standing for 3min. Finally, the luminescence value of each well was measured using a microplate reader. Cell viability (%) = average value of experimental group/average value of cell control group × 100 [formula]
as §1

[2] = molecular target: 3C protein in U87 MG cells (Enterovirus A71, UniProt B9VUU3); assay type: cell-based, EV71 or Coxsackievirus A14
Sequence of 3C protein in U87 MG cells (B9VUU3 1549-1731, change not shown): as above
Experimental: as §2, §1

in vitro [3] = assay type: cell-based; conditions: human; remark: listed apart in the source
Experimental: as §1

For `CCOC(=O)/C=C/[C@H](C[C@@H]1CCNC1=O)NC(=O)[C@@H](CC(=O)[C@@H](NC(=O)c1cc(C)on1)C(C)C)Cc1ccc(F)cc1` [AG7088, Rupintrivir], the CC50 (in vitro [1]) was over 100 µM, the IC50 (3C protein in A172 cells) was 0.439 ± 0.03 µM and the “Viability of U87 cells (%)” value ([2]; AG7088 1µM + EV-3C-mRNA 31.2 ng/ml, 48h) was 95.64±2%. For the same molecule, the IC50 ([2]; inhibition of the decrease in cell viability caused by 3C-mRNA transfection, U87 MG cells) was 1.15 ± 0.19 µM and the CC50 (in vitro [3]) was over 100 µM.
